Test results as given in patent US8674095B2, “Compounds for treating neuropsychiatric conditions” (Afraxis Holdings, Inc., priority 2008, dated 2014).

Legend:
PAK1 = PAK1 (Homo sapiens, UniProt Q13153); experiment: Z'Lyte fluorescence-based (FRET) kinase assay, PAK1; type: biochemical; details: 50 μM ATP (Km apparent), 1 hr room temperature, 1% DMSO
Procedure: (§1) A fluorescence-based assay format is used to determine IC50 values of test compounds in vitro. Purified PAK kinase is incubated with ATP, and a test compound at various concentrations and a substrate peptide containing two fluorophores. In a second step, the reaction mix is incubated with a site-specific protease that cleaves non-phosphorylated but not phosphorylated substrate peptide, disrupting the FRET signal generated by the two fluorophores in the cleaved peptide (Z′Lyte™ Kinase assay platform; Life Technologies).
(§2) Reagents: 50 mM HEPES, pH 7.5; 0.01% BRIJ-35; 10 mM MgCl2; 1 mM EGTA, 2 uM substrate peptide Ser/Thr20 (proprietary Life Technologies Sequence), PAK enzyme [2.42-30.8 ng for PAK1, 0.29-6 ng for PAK2, 1.5-20 ng for PAK3 and 0.1-0.86 ng for PAK4; actual enzyme amounts depend on lot activity of the enzyme preparation]
(§3) Test compounds are dissolved in DMSO at various concentrations; the final DMSO concentration in the assay reaction is 1%.
(§4) ATP concentration at Km apparent is used in the assay [50 μM ATP for PAK1 assay, 75 μM ATP for PAK2 assay, 100 μM ATP for PAK3 assay, 5 μM ATP for PAK-4 assay] in a total assay volume of […] Assay reactions are incubated at room temperature for 1 hr. Following the kinase reaction, 5 μl of 1:256 dilution of development solution A (Life Technologies) is added and the reaction mix is incubated for an additional 1 hr at room temperature.
(§5) Plates are analyzed in a standard fluorescence plate reader (Tecan or equivalent) using an excitation wavelength of 400 nm and emission wavelengths of 445 nm and 520 nm. Inhibition of kinase reaction is determined by emission ratio=emission@445 nm/emission@520 nm

PAK2 = PAK2 (Homo sapiens, UniProt Q13177); experiment: Z'Lyte fluorescence-based (FRET) kinase assay, PAK2; type: biochemical; details: 75 μM ATP (Km apparent), 1 hr room temperature, 1% DMSO
Procedure: as §1, §2, §3, §4, §5

PAK3 = PAK3 (Homo sapiens, UniProt O75914); experiment: Z'Lyte fluorescence-based (FRET) kinase assay, PAK3; type: biochemical; details: 100 μM ATP (Km apparent), 1 hr room temperature, 1% DMSO
Procedure: as §1, §2, §3, §4, §5

PAK4 = PAK4 (Homo sapiens, UniProt O96013); experiment: Z'Lyte fluorescence-based (FRET) kinase assay, PAK4; type: biochemical; details: 5 μM ATP (Km apparent), 1 hr room temperature, 1% DMSO
Procedure: as §1, §2, §3, §4, §5

PAK1, PAK2, PAK3, PAK-4 = experiment: PAK isoform inhibition profile of example compounds; type: biochemical; details: classification of example compounds in the description; underlying IC50 data in Table 8
Text: In some embodiments, the PAK inhibitor is a Group I PAK inhibitor that inhibits, for example, one or more Group I PAK polypeptides, for example, PAK1, PAK2, and/or PAK3. […] In some embodiments, the PAK inhibitor is a PAK2 inhibitor. In some embodiments, the PAK inhibitor is a PAK3 inhibitor. In some embodiments, the PAK inhibitor is a mixed PAK1/PAK3 inhibitor. […] In some embodiments, the PAK inhibitor is a Group II PAK inhibitor that inhibits one or more Group II PAK polypeptides, for example PAK-4, PAK5, and/or PAK6. In some embodiments, the PAK inhibitor is a PAK4 inhibitor. In some embodiments, the PAK inhibitor is a PAK5 inhibitor. In some embodiments, the PAK inhibitor is a PAK6 inhibitor.
as §1, §2, §3, §4, §5

[1] = tested on: Wistar rat pups injected with tetanus toxin; details: in vivo

Sequence of PAK3 (O75914 whole entry): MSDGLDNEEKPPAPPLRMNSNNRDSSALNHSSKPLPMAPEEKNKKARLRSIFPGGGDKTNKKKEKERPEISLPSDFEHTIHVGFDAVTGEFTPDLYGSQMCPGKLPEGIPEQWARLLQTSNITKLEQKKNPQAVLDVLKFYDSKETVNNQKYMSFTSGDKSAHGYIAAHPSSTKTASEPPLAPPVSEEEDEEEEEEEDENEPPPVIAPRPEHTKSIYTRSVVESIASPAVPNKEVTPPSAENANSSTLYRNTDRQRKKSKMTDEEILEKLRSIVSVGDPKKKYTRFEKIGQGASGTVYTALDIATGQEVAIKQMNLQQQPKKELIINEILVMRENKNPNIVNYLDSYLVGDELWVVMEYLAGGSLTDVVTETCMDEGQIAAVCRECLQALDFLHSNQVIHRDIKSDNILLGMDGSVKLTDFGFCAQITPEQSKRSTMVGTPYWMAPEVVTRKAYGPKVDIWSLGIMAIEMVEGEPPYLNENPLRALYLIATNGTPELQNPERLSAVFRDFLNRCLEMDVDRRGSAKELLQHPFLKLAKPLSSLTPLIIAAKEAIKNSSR
Sequence of PAK2 (Q13177 whole entry): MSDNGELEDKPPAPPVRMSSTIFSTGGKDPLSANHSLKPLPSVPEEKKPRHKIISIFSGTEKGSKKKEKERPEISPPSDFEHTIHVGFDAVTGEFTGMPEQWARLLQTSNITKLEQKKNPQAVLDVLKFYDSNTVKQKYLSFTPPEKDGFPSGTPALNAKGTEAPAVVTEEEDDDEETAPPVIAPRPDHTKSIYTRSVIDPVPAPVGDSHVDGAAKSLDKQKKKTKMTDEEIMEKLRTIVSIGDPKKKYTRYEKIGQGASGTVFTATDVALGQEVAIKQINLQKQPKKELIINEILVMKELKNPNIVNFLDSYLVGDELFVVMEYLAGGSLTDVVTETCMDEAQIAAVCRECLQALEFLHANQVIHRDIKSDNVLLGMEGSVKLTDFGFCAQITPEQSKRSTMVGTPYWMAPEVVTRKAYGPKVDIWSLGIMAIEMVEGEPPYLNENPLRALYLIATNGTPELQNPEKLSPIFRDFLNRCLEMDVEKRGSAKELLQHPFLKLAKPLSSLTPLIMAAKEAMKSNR
Sequence of PAK4 (O96013 whole entry): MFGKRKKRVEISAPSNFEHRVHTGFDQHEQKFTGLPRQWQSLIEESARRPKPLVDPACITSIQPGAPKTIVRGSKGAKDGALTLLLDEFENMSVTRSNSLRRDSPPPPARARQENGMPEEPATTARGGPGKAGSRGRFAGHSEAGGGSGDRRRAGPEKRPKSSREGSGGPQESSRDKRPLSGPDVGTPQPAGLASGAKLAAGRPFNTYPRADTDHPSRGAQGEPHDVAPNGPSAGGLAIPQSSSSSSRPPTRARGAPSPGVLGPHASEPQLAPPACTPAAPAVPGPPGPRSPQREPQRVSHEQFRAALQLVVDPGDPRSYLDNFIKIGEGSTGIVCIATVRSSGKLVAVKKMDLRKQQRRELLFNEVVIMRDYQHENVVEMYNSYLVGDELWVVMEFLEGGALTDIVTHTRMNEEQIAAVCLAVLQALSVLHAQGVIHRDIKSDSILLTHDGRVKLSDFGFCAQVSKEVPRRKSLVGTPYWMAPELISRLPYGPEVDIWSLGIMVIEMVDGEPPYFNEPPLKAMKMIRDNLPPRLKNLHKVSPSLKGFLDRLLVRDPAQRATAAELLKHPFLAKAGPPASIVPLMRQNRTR
Sequence of PAK1 (Q13153 whole entry): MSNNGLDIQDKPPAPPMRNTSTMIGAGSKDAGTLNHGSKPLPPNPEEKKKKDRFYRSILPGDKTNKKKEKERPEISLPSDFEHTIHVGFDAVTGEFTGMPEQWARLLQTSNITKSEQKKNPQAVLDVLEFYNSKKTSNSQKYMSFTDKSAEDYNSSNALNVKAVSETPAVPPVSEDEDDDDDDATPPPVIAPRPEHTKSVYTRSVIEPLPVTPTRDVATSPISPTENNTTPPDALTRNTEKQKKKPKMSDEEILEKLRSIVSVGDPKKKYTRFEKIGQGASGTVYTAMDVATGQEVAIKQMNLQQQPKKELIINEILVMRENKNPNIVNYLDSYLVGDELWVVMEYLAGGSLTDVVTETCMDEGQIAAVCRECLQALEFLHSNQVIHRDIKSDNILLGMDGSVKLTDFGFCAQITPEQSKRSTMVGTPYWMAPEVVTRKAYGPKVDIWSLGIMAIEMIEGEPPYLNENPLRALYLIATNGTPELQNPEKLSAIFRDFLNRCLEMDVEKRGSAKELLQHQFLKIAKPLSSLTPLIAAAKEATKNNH

## CN1CCN(c2ccc(Nc3ncc4ccc(=O)n([C@H]5CCCc6ccccc65)c4n3)cc2)CC1 [Compound 12]
PAK1
  IC50: < 1000 nM
PAK2
  IC50: 1000 to 10000 nM
PAK3
  IC50: 1000 to 10000 nM
PAK4
  IC50: 1000 to 10000 nM
PAK1, PAK2, PAK3, PAK-4
  PAK inhibitor type (isoform profile): PAK1 inhibitor
[1]
  Effect on seizures: reduce the frequency and severity of seizures

## O=c1ccc2cnc(Nc3ccc(N4CCNCC4)c(F)c3)nc2n1Cc1ccccc1C(F)(F)F [Compound 62]
PAK1
  IC50: < 1000 nM
PAK2
  IC50: < 1000 nM
PAK3
  IC50: < 1000 nM
PAK4
  IC50: < 1000 nM
PAK1, PAK2, PAK3, PAK-4
  PAK inhibitor type (isoform profile): mixed PAK1/PAK2/PAK3/PAK-4 inhibitor

## Cc1cccc(F)c1Cn1c(=O)ccc2cnc(Nc3ccc(N4CCN(C)CC4)cc3)nc21 [Compound 65]
PAK1
  IC50: < 1000 nM
PAK2
  IC50: < 1000 nM
PAK3
  IC50: < 1000 nM
PAK4
  IC50: < 1000 nM
PAK1, PAK2, PAK3, PAK-4
  PAK inhibitor type (isoform profile): mixed PAK1/PAK2/PAK3/PAK-4 inhibitor

## CN1CCN(c2ccc(Nc3ncc4ccc(=O)n(CCc5ccccc5C(F)(F)F)c4n3)cc2)CC1 [Compound 66]
PAK1
  IC50: < 1000 nM
PAK2
  IC50: < 1000 nM
PAK3
  IC50: 1000 to 10000 nM
PAK4
  IC50: < 1000 nM
PAK1, PAK2, PAK3, PAK-4
  PAK inhibitor type (isoform profile): mixed PAK1/PAK2/PAK-4 inhibitor

## CN1CCN(c2ccc(Nc3ncc4ccc(=O)n(Cc5ccccc5-c5ccccc5)c4n3)cc2)CC1 [Compound 68]
PAK1
  IC50: < 1000 nM
PAK2
  IC50: < 1000 nM
PAK3
  IC50: < 1000 nM
PAK4
  IC50: 1000 to 10000 nM
PAK1, PAK2, PAK3, PAK-4
  PAK inhibitor type (isoform profile): inhibits all three Group I PAK isoforms (PAK1, 2 and PAK3) with equal or similar potency

## CC(C)Oc1ccccc1Cn1c(=O)ccc2cnc(Nc3ccc(N4CCN(C)CC4)cc3)nc21 [Compound 69]
PAK1
  IC50: < 1000 nM
PAK2
  IC50: < 1000 nM
PAK3
  IC50: < 1000 nM
PAK4
  IC50: < 1000 nM
PAK1, PAK2, PAK3, PAK-4
  PAK inhibitor type (isoform profile): mixed PAK1/PAK2/PAK3/PAK-4 inhibitor

## CN1CCN(c2ccc(Nc3ncc4ccc(=O)n(Cc5c(Cl)cccc5Br)c4n3)cc2)CC1 [Compound 71]
PAK1
  IC50: < 1000 nM
PAK2
  IC50: < 1000 nM
PAK3
  IC50: < 1000 nM
PAK4
  IC50: < 1000 nM
PAK1, PAK2, PAK3, PAK-4
  PAK inhibitor type (isoform profile): mixed PAK1/PAK2/PAK3/PAK-4 inhibitor

## CN1CCN(c2ccc(Nc3ncc4ccc(=O)n(Cc5ccccc5S(C)(=O)=O)c4n3)cc2)CC1 [Compound 72]
PAK1
  IC50: < 1000 nM
PAK2
  IC50: < 1000 nM
PAK3
  IC50: < 1000 nM
PAK4
  IC50: < 1000 nM
PAK1, PAK2, PAK3, PAK-4
  PAK inhibitor type (isoform profile): mixed PAK1/PAK2/PAK3/PAK-4 inhibitor

## CN1CCN(c2ccc(Nc3ncc4ccc(=O)n(Cc5ccccc5N5CCOCC5)c4n3)cc2)CC1 [Compound 73]
PAK1
  IC50: < 1000 nM
PAK2
  IC50: < 1000 nM
PAK3
  IC50: < 1000 nM
PAK4
  IC50: < 1000 nM
PAK1, PAK2, PAK3, PAK-4
  PAK inhibitor type (isoform profile): mixed PAK1/PAK2/PAK3/PAK-4 inhibitor

## CN1CCN(c2ccc(Nc3ncc4ccc(=O)n(Cc5ccccc5S(=O)(=O)N5CCOCC5)c4n3)cc2)CC1 [Compound 74]
PAK1
  IC50: < 1000 nM
PAK2
  IC50: < 1000 nM
PAK3
  IC50: < 1000 nM
PAK4
  IC50: < 1000 nM
PAK1, PAK2, PAK3, PAK-4
  PAK inhibitor type (isoform profile): mixed PAK1/PAK2/PAK3/PAK-4 inhibitor

## Cc1noc(-c2ccccc2Cn2c(=O)ccc3cnc(Nc4ccc(N5CCN(C)CC5)cc4)nc32)n1 [Compound 75]
PAK1
  IC50: < 1000 nM
PAK2
  IC50: 1000 to 10000 nM
PAK3
  IC50: 1000 to 10000 nM
PAK4
  IC50: 1000 to 10000 nM
PAK1, PAK2, PAK3, PAK-4
  PAK inhibitor type (isoform profile): PAK1 inhibitor

## CN1CCN(c2ccc(Nc3ncc4ccc(=O)n(Cc5ccccc5-c5cccs5)c4n3)cc2)CC1 [Compound 77]
PAK1
  IC50: < 1000 nM
PAK2
  IC50: < 1000 nM
PAK3
  IC50: < 1000 nM
PAK4
  IC50: 1000 to 10000 nM
PAK1, PAK2, PAK3, PAK-4
  PAK inhibitor type (isoform profile): inhibits all three Group I PAK isoforms (PAK1, 2 and PAK3) with equal or similar potency

## O=c1ccc2cnc(Nc3ccc(N4CCNCC4)c(F)c3)nc2n1Cc1ccccc1-c1cccs1 [Compound 78]
PAK1
  IC50: < 1000 nM
PAK2
  IC50: < 1000 nM
PAK3
  IC50: < 1000 nM
PAK4
  IC50: < 1000 nM
PAK1, PAK2, PAK3, PAK-4
  PAK inhibitor type (isoform profile): mixed PAK1/PAK2/PAK3/PAK-4 inhibitor

## CN1CCN(c2ccc(Nc3ncc4ccc(=O)n(Cc5c(F)cccc5Br)c4n3)cc2)CC1 [Compound 79]
PAK1
  IC50: < 1000 nM
PAK2
  IC50: < 1000 nM
PAK3
  IC50: < 1000 nM
PAK4
  IC50: < 1000 nM
PAK1, PAK2, PAK3, PAK-4
  PAK inhibitor type (isoform profile): mixed PAK1/PAK2/PAK3/PAK-4 inhibitor

## Cc1noc(-c2ccccc2Cn2c(=O)ccc3cnc(Nc4ccc(N5CCNCC5)c(F)c4)nc32)n1 [Compound 80]
PAK1
  IC50: < 1000 nM
PAK2
  IC50: 1000 to 10000 nM
PAK3
  IC50: 1000 to 10000 nM
PAK4
  IC50: 1000 to 10000 nM
PAK1, PAK2, PAK3, PAK-4
  PAK inhibitor type (isoform profile): PAK1 inhibitor

## CN1CCN(c2ccc(Nc3ncc4ccc(=O)n(Cc5ccccc5C5CC5)c4n3)cc2)CC1 [Compound 81, 8-(2-cyclopropylbenzyl)-2-(4-(4-methylpiperazin-1-yl)phenylamino)pyrido[2,3-d]pyrimidin-7(8H)-one]
PAK1
  IC50: < 1000 nM
PAK2
  IC50: < 1000 nM
PAK3
  IC50: < 1000 nM
PAK4
  IC50: < 1000 nM
PAK1, PAK2, PAK3, PAK-4
  PAK inhibitor type (isoform profile): mixed PAK1/PAK2/PAK3/PAK-4 inhibitor

## CN1CCN(c2ccc(Nc3ncc4ccc(=O)n(Cc5c(Cl)cccc5C5CC5)c4n3)cc2)CC1 [Compound 84]
PAK1
  IC50: < 1000 nM
PAK2
  IC50: < 1000 nM
PAK3
  IC50: < 1000 nM
PAK4
  IC50: 1000 to 10000 nM
PAK1, PAK2, PAK3, PAK-4
  PAK inhibitor type (isoform profile): inhibits all three Group I PAK isoforms (PAK1, 2 and PAK3) with equal or similar potency

## CN1CCN(c2ccc(Nc3nccc(-c4ccc(NCCN)nc4)n3)cc2)CC1.Cl [Compound 94, N-(5-{2-[4-(4-Methyl-piperazin-1-yl)-phenylamino]-pyrimidin-4-yl}-pyridin-2-yl)-ethane-1,2-diamine hydrochloride]
PAK1
  IC50: < 1000 nM
PAK2
  IC50: 1000 to 10000 nM
PAK3
  IC50: 1000 to 10000 nM
PAK4
  IC50: < 1000 nM
PAK1, PAK2, PAK3, PAK-4
  PAK inhibitor type (isoform profile): mixed PAK1/PAK-4 inhibitor

## NCCNc1ccc(-c2ccnc(Nc3ccc(N4CCNCC4)cc3)n2)cn1 [Compound 111]
PAK1
  IC50: < 1000 nM
PAK2
  IC50: 1000 to 10000 nM
PAK3
  IC50: 1000 to 10000 nM
PAK4
  IC50: < 1000 nM
PAK1, PAK2, PAK3, PAK-4
  PAK inhibitor type (isoform profile): mixed PAK1/PAK-4 inhibitor

## CN1CCN(c2ccc(Nc3nccc(-c4ccc(NCCN)nc4)n3)cc2F)CC1 [Compound 113]
PAK1
  IC50: < 1000 nM
PAK2
  IC50: 1000 to 10000 nM
PAK3
  IC50: 1000 to 10000 nM
PAK4
  IC50: < 1000 nM
PAK1, PAK2, PAK3, PAK-4
  PAK inhibitor type (isoform profile): mixed PAK1/PAK-4 inhibitor

## CN1CCN(c2ccc(Nc3ncc4cc(-c5ccccc5)c(=O)n(Cc5ccccc5C(F)(F)F)c4n3)cc2)CC1 [Compound 119]
PAK1
  IC50: < 1000 nM
PAK2
  IC50: < 1000 nM
PAK3
  IC50: < 1000 nM
PAK4
  IC50: > 10000 nM
PAK1, PAK2, PAK3, PAK-4
  PAK inhibitor type (isoform profile): inhibits all three Group I PAK isoforms (PAK1, 2 and PAK3) with equal or similar potency
